Experimental data published in patent US20050020534A1, “Method for treating diseases using HSP90-inhibiting agents in combination with antimetabolites” (Kosan Biosciences, Inc., priority 2003, published 2005).
Like-named read-outs stand apart in the source and are kept apart here.

Assays:
[1] = test system: ErbB2 protein; assay: Expression of ErbB2 protein in glioma cells; type: cell-based
[2] = test system: ErbB2 protein; assay: Expression of ErbB2 protein in SKBr3 cells; type: cell-based, human
[3] = test system: SKBr cells (human breast cancer cells); assay: MTS cell viability assay, drug combination effect analysis (combination index) in SKBr-3 cells; type: cell-based; conditions: combination of antimetabolite with 17-AAG, CI<1 synergism, CI=1 additivity, CI>1 antagonism; for CI values, 17-AAG Pre-Administration: 17-AAG 24 hours before antimetabolite (48 hours)
Protocol: Human colon adenocarcinoma cell line, DLD-1, and human breast adenocarcinoma cell line, SKBr-3, were obtained from American Type Culture Collection (manassas, Va.). […] Other cytotoxic agents were purchased commercially from suppliers such as Sigma Chemical Co. (St. Louis, Mo.) and Sequoia Research Products (Oxford, UK). Cells were seeded in duplicate in 96-well microtiter plates at a density of 5,000 cells per well and allowed to attach overnight. […] Cell viability was determined using the MTS assay (Promega). […] Based on the IC50 values of each individual drug, combined drug treatment was designed at constant ratios of two drugs, i.e., equivalent to the ratio of their IC50. Two treatment schedules were used: In one schedule, the cells were exposed to 24 hours of 17-AAG or 17-DMAG. The drug was then added to the cells and incubated for 48 hours. […] Cell viability was determined by the MTS assay. Synergism, additivity or antagonism was determined by median effect analysis using the combination index (CI) calculated using Calcusyn (Biosoft, Cambridge, UK). The combination index is defined as follows: […] The “enhancing” effect of two drugs can also be determined.

[4] = test system: DLD-1 cells (human colorectal cancer cells); assay: MTS cell viability assay, drug combination effect analysis (combination index) in DLD-1 cells; type: cell-based; conditions: combination of antimetabolite with 17-AAG, CI<1 synergism, CI=1 additivity, CI>1 antagonism; for CI values, 17-AAG Pre-Administration: 17-AAG 24 hours before antimetabolite (48 hours); for CI values, 17-AAG Post-Administration: antimetabolite 24 hours, then 17-AAG for 48 hours
Protocol: Human colon adenocarcinoma cell line, DLD-1, and human breast adenocarcinoma cell line, SKBr-3, were obtained from American Type Culture Collection (manassas, Va.). […] Other cytotoxic agents were purchased commercially from suppliers such as Sigma Chemical Co. (St. Louis, Mo.) and Sequoia Research Products (Oxford, UK). Cells were seeded in duplicate in 96-well microtiter plates at a density of 5,000 cells per well and allowed to attach overnight. […] Cell viability was determined using the MTS assay (Promega). […] Based on the IC50 values of each individual drug, combined drug treatment was designed at constant ratios of two drugs, i.e., equivalent to the ratio of their IC50. Two treatment schedules were used: In one schedule, the cells were exposed to 24 hours of 17-AAG or 17-DMAG. The drug was then added to the cells and incubated for 48 hours. […] Cell viability was determined by the MTS assay. Synergism, additivity or antagonism was determined by median effect analysis using the combination index (CI) calculated using Calcusyn (Biosoft, Cambridge, UK). The combination index is defined as follows: […] The quantities [Dx]1 and [Dx]2 represent the concentrations of the first and second drug, respectively, that when used alone provide a response of x % in the assay. […] The “enhancing” effect of two drugs can also be determined.

[5] = clinical trials, sole therapeutic agent, cited from earlier work

Row | SMILES | expression of ErbB2 protein [1] | expression of ErbB2 protein [2] | CI values, 17-AAG Pre-Administration [3] | CI values, 17-AAG Post-Administration ([3]; antimetabolite 24 hours, then 17-AAG for 48 hours) | CI values, 17-AAG Pre-Administration [4] | CI values, 17-AAG Post-Administration [4] | MTD ([5]; daily ×5 schedule) | MTD ([5]; once-weekly regimen) | MTD ([5]; twice-weekly regimen)
1 | CO[C@H]1/C=C\C=C(/C)C(=O)NC2=CC(=O)C(NCCN(C)C)=C(C[C@@H](C)C[C@H](OC)[C@H](O)[C@@H](C)/C=C(\C)[C@@H]1OC(N)=O)C2=O [17-DMAG, 17-(2-dimethylaminoethyl)amino-17-desmethoxygeldanamycin] | reduced the expression | reduced the expression | – | – | – | – | – | – | –
2 | Nc1ccn([C@@H]2O[C@H](CO)[C@@H](O)C2(F)F)c(=O)n1 [Gemcitabine, gemcitabine] | – | – | 1.79 ± 0.54 | 0.86 ± 0.19 | 0.45 ± 0.19 | 0.77 ± 0.23 | – | – | –
3 | O=c1[nH]cc(F)c(=O)[nH]1 [5-Fluorouracil, 5-fluorouracil] | – | – | 0.65 ± 0.48 | – | 0.96 ± 0.16 | 0.33 ± 0.08 | – | – | –
4 | CN(Cc1cnc2nc(N)nc(N)c2n1)c1ccc(C(=O)N[C@@H](CCC(=O)O)C(=O)O)cc1 [Methotrexate, methotrexate] | – | – | – | – | 0.83 ± 0.14 | 0.71 ± 0.35 | – | – | –
5 | C=CCNC1=C2C[C@@H](C)C[C@H](OC)[C@H](O)[C@@H](C)/C=C(\C)[C@H](OC(N)=O)[C@@H](OC)/C=C\C=C(/C)C(=O)NC(=CC1=O)C2=O [17-AAG, 17-(allylamino)-17-desmethoxygeldanamycin] | reduced the expression | reduced the expression | – | – | – | – | about 40 mg/m^2 | about 308 mg/m^2 | about 220 mg/m^2
